One data set deals with RP-R-02LM ccRCC PDX. Format: in vivo. To be noted: tumors at primary site.
The test system of a further data set is Toledo cells. The conditions noted are these: Toledo (WT EZH2 ABC); drug combined with Compound 44. The protocol: (§1) After 3 days of co-treatment, cell viability was measured via ATP content using CellTiter-Glo®
(§2) Synergy quantification is performed using the Chou-Talalay method^3 for drug combination. The Combination Index (CI) equation offers a quantitative definition for additivity (CI=1), synergism (CI<1), and antagonism (CI>1). This equation used Fa values from a constant ratio of drug combination to determine CI values. […] These Fa-CI plots are generated using the Calcusyn software.
(§3) After 3 days of co-treatment (5 days for Toledo assays), cell viability was measured via ATP content using CellTiter-Glo® (Promega) and luminescence was detected using a SpectraMax M5 microplate reader (Molecular Devices).
(§4) Synergy quantification is performed using the Chou-Talalay method for drug combination (Ref 1). The Combination Index (CI) equation offers a quantitative definition for additivity (CI=1), synergism (CI<1), and antagonism (CI>1). This equation used fractional effect (Fa) values from a constant ratio of drug combination to determine CI values. […] These Fa-CI plots are generated using the Calcusyn for Windows software (Ref2).
(§5) Dose responses were plotted using Graphpad Prism and either 50% or 60% inhibitory concentrations were interpolated from the dose response curves.

The test system of another data set is DOHH2 cells. The conditions noted are these: DOHH2 (WT EZH2 GCB); drug combined with Compound 44. As for the experimental part: as §1, §2, §3, §4, §5
Another data set deals with WSU-DLCL2 cells. To be noted: for growth inhibition by the drug by itself: WSU-DLCL2, single agent. As for the experimental part: as §1, §2, §3, §4, §5
The next data set has as its system SU-DHL10 cells. The conditions noted are these: for growth inhibition by the drug by itself: SU-DHL10, single agent. The protocol:
as §1, §2, §3, §4, §5

The conditions of data set [1]: due to its cardiotoxicity; cited from earlier work.
Data set [2] relates to EZH2 mutant lymphoma cell line. The data set is described as follows: Combination assay with targeted therapies (pre-treatment model A, Calcusyn), EZH2 mutant lymphoma cell line. Type of data set: cell-based. The conditions noted are these: pretreatment model A, combined with Compound 44. The source says:
Statistically significant CI values for synergy are for example those CI value<1 with the confidence interval lines also below 1.
CI values<1 with confidence interval lines also below 1 indicate statistically significant synergism.

The mark [3] stands for this setting: WSU-DLCL2 (EZH2 mutant GCB), drug combined with Compound 44.
Setting [4] is: SU-DHL 10 (EZH2 mutant GCB), drug combined with Compound 44.

Molecules are shown by their SMILES.

Method for RP-R-02LM ccRCC PDX: Mice bearing human ccRCC patient derived xenograft (PDXs); RP-R-01, RP-R-02 and RP-R-02LM (a metastatic ccRCC model established from RP-R-02) were implanted into SCID mice. […] Tumors volumes and body weight were assessed once per week. Tumor tissues and lungs were collected for immunohistochemistry analysis. All assessments and quantification were done blindly.

With `CCN(c1cc(C#CCN2CCOCC2)cc(C(=O)NCc2c(C)cc(C)[nH]c2=O)c1C)C1CCC(N(C)CCOC)CC1` (centres unmarked) [Compound B], the “cell proliferation (Ki67 stain)” value in the data set on RP-R-02LM ccRCC PDX is recorded as “Decreased cell proliferation”.
For the compound `C[C@@H]1C[C@H]2[C@@H]3CCC4=CC(=O)C=C[C@]4(C)[C@@]3(F)[C@@H](O)C[C@]2(C)[C@@]1(O)C(=O)CO` [Dexamethasone, dexamethasone], the “Summary of Combinations with Compound 44 (combination effect)” value (“Summary … (combination effect)” for short) with Toledo cells was “no effect”. The “Summary of Combinations with Compound 44: potency enhanced” value in the data set with DOHH2 cells is listed as “potency enhanced 4x”; in the data set with WSU-DLCL2 cells (setting [3]) it was 15x; in the data set on SU-DHL10 cells (setting [4]) it was “potency enhanced 5x”.
With `COc1cccc2c1C(=O)c1c(O)c3c(c(O)c1C2=O)C[C@@](O)(C(=O)CO)C[C@@H]3O[C@H]1C[C@H](N)[C@H](O)[C@H](C)O1` [Doxurubicin, doxorubicin], in data set [1], the “lifetime cumulative dosing limit” value is on record as < 550 mg/m^2. Moreover, the “Summary … (combination effect)” value with Toledo cells is recorded as “no effect”; with DOHH2 cells it was “no effect”; with WSU-DLCL2 cells (setting [3]), “synergy (Cl < 1 synergy)”; in the data set with SU-DHL10 cells (setting [4]), “additive (Cl = 1 additive)”. Besides, the “growth inhibition by the drug by itself” value in the data set on WSU-DLCL2 cells and with SU-DHL10 cells was “concentration-dependent growth inhibition” in each case.
With `CC1(C)CCC(c2ccc(Cl)cc2)=C(CN2CCN(c3ccc(C(=O)NS(=O)(=O)c4ccc(N[C@H](CCN5CCOCC5)CSc5ccccc5)c(S(=O)(=O)C(F)(F)F)c4)cc3)CC2)C1` [Navitoclax], the “synergy in combination with Compound 44” value in data set [2] was “Very strong synergy”.
As for `CC[C@]1(O)C[C@H]2CN(CCc3c([nH]c4ccccc34)[C@@](C(=O)OC)(c3cc4c(cc3OC)N(C=O)[C@H]3[C@@](O)(C(=O)OC)[C@H](OC(C)=O)[C@]5(CC)C=CCN6CC[C@]43[C@@H]65)C2)C1` [Vincristine, vincristine], the “Summary … (combination effect)” value is “no effect” with Toledo cells, “no effect” in the data set with DOHH2 cells, “additive (Cl = 1 additive)” in the data set on WSU-DLCL2 cells (setting [3]) and “additive (Cl = 1 additive)” in the data set with SU-DHL10 cells (setting [4]). The “growth inhibition by the drug by itself” value with WSU-DLCL2 cells and with SU-DHL10 cells was “concentration-dependent growth inhibition” each time.
In the case of `CO[C@H]1C[C@@H]2CC[C@@H](C)[C@@](O)(O2)C(=O)C(=O)N2CCCC[C@H]2C(=O)O[C@H]([C@H](C)C[C@@H]2CC[C@@H](OCCO)[C@H](OC)C2)CC(=O)[C@H](C)/C=C(\C)[C@@H](O)[C@@H](OC)C(=O)[C@H](C)C[C@H](C)/C=C/C=C/C=C/1C` [everolimus], the “synergy in combination with Compound 44” value in data set [2] is “Very strong synergy”.

Values taken from patent US10456407B2, “Combination therapy for treating cancer” (Epizyme, Inc., priority 2015, dated 2019).
